Experimental findings from patent US6635652B1, “Azaindolizinone derivatives and cerebral function improvers containing the same as the active ingredient” (Zenyaku Kogyo Kabushiki Kaisha, priority 1999, dated 2003) are described below.

Data set [1] concerns amnesia of rats induced by scopolamine. Description: Effects on scopolamine-induced amnesia (passive avoidance task, oral administration). The format is in vivo. The settings on record: 60 min before retention trial, scopolamine hydrobromide 2 mg/kg i.p., passive avoidance latency, male Strague Dawley rats; for inhibition in vivo at 0.01 mg/kg / inhibition in vivo at 1 mg/kg: Rattus norvegicus, po, read-out: Inhibitory rate (%); for inhibition in vivo at 0.01 mg/kg / Inhibitory rate (%): 0.01 mg/kg p.o.; for inhibition in vivo at 1 mg/kg: 1 mg/kg p.o. From the text:
Male rats of the Strague Dawley strain at 8 weeks of age (260±2 g body weight) were used for evaluation through passive avoidance task. The apparatus of passive avoidance task comprises illuminated and dark chambers which are separated from each other by a wall with a door. Floors are constituted by grids made of stainless steel; only the grid in the dark chamber is furnished with wiring for electrification.
Effected on the first and second days of testing was preparative training; each rat was placed in the illuminated chamber and left for 3 minutes to habituate to the apparatus. On the third day of testing, the rats were individually placed in the illuminated chamber and after entering the dark chamber, the door was closed and the floor grid was electrified to deliver electric shock (100 V, 0.4 mA, a period of 0.8 sec). In order to induce amnesia, scopolamine hydrobromide (2 mg/kg) was intraperitoneally injected 20 minutes before the electric shock was delivered. Retention in memory on the electric shock was tested 24 hours later; more specifically, retention in passive avoidance trial was measured in terms of a time interval (latency) from placement of each rat in the illuminated chamber to its entry into the dark chamber. The latency over 300 seconds was recorded as 300 seconds. Respective test compounds were suspended in an aqueous solution of 1% carboxymethyl cellulose and orally administered at a dose of 0.01 or 1 mg/kg 60 minutes before the trial.
Antiamnesic effects of the test compounds were evaluated by inhibitory rate (%) which is calculated by the following formula: [formula]
wherein T stands for latency and SC stands for administration of scopolamine hydrobromide. Experimental results are shown in the following table in which, as to each of the test compounds, only the dose showing higher inhibitory rate was indicated.

Marks after values point to notes of the source that are not given here.

The melting point is the temperature, or range, at which the solid turns liquid. Compound `NC1=CC=CN2C1=NC(=O)C2(Cc1ccccc1)Cc1ccccc1` [Compound 41, 8-Amino-3,3-dibenzylimidazo[1,2-a]pyridin-2(3H)-one] gave a melting point of 283 to 285 °C. In data set [1], the inhibition in vivo at 0.01 mg/kg was determined as 30%.

Compound `COc1ccc(CC2(Cc3ccc(OC)cc3)C(=O)N=C3C=CC=CN32)cc1` [Compound 19, 3,3-bis(4-Methoxybenzyl)imidazo[1,2-a]pyridin-2(3H)-one] came in with a melting point of 248 to 251 °C. For the same compound, in data set [1], the inhibition in vivo at 1 mg/kg was 64.3%.

As to `O=C1N=C2C=CC=CN2C1(Cc1ccco1)Cc1ccco1` [Compound 32, 3,3-bis(2-Furylmethyl)imidazo[1,2-a]pyridin-2(3H)-one], the melting point was 205 °C (dec.). Further, the inhibition in vivo at 0.01 mg/kg in data set [1] was determined as 77.4%.

`O=C1N=C2C=CC=CN2C1(Cc1cccc(Cl)c1)Cc1cccc(Cl)c1` [Compound 18, 3,3-bis(3-Chlorobenzyl)imidazo[1,2-a]pyridin-2(3H)-one] came in with a melting point of 271 to 272 °C. In addition, the inhibition in vivo at 1 mg/kg in data set [1] stood at 58.7%.

With `O=C1N=C2C=CC=CN2C1(Cc1ccc(-c2ccccc2)cc1)Cc1ccc(-c2ccccc2)cc1` [Compound 20, 3,3-bis(4-Biphenylmethyl)imidazo[1,2-a]pyridin-2(3H)-one], the “Inhibitory rate (%)” value in data set [1] is 30.2* %.

As for `O=C1N=C2C(NCc3ccccc3)=CC=CN2C1(Cc1ccccc1)Cc1ccccc1` [Compound 37, 3,3-Dibenzyl-8-benzylaminoimidazo[1,2-a]pyridin-2(3H)-one], the melting point was determined as 250 °C. In addition, the inhibition in vivo at 0.01 mg/kg in data set [1] stood at 56%.

Compound `C#CCC1(CC#C)C(=O)N=C2C=CC=CN21` [Compound 35, 3,3-di(2-Propynyl)imidazo[1,2-a]pyridin-2(3H)-one] had a melting point of 172 to 175 °C. Also, the inhibition in vivo at 0.01 mg/kg in data set [1] came to 30.3%.

For `C=CCOC1=CC=CN2C1=NC(=O)C2(Cc1ccccc1)Cc1ccccc1` [Compound 5, 8-Allyloxy-3,3-dibenzylimidazo[1,2-a]pyridin-2(3H)-one], the melting point lay within 214 to 215 °C. The inhibition in vivo at 1 mg/kg in data set [1] was determined as 34.8%.

In the case of `O=C1N=C2C=CC=CN2C1(Cc1cccs1)Cc1cccs1` [Compound 30, 3,3-bis(2-Thienylmethyl)imidazo[1,2-a]pyridin-2(3H)-one], the melting point was 289.5 °C (dec.). Moreover, in data set [1], the inhibition in vivo at 0.01 mg/kg was found to be 79.5%.

The compound `O=C1N=C2C=CC=CN2C1(Cc1ccc(F)cc1F)Cc1ccc(F)cc1F` [Compound 28, 3,3-bis(2,4-Difluorobenzyl)imidazo[1,2-a]pyridin-2(3H)-one] came in with a melting point of 269 to 271 °C. Also, in data set [1], the inhibition in vivo at 0.01 mg/kg came to 62.7%.

`CC(c1ccccc1)C1(C(C)c2ccccc2)C(=O)N=C2C(OCc3ccccc3)=CC=CN21` (stereo not drawn) [Compound 7, 8-Benzyloxy-3,3-bis(1-phenylethyl)imidazo[1,2-a]-pyridin-2(3H)-one] gave a melting point of 234 to 235 °C.

The compound `CCCC1(CCC)C(=O)N=C2C=CC=CN21` [Compound 29, 3,3-Dipropylimidazo[1,2-a]pyridin-2(3H)-one] registered a melting point of 73 to 75 °C. In addition, in data set [1], the inhibition in vivo at 1 mg/kg was 115%.

Take `Cc1cccc(CC2(Cc3cccc(C)c3)C(=O)N=C3C(OCc4ccccc4)=CC=CN32)c1` [Compound 14, 8-Benzyloxy-3,3-bis(3-methylbenzyl)imidazo[1,2-a]pyridin-2(3H)-one]: the melting point lay in the range of 233 to 235 °C. The inhibition in vivo at 1 mg/kg in data set [1] worked out at 56.7%.

Take `O=C1N=C2C(OCC3CC3)=CC=CN2C1(Cc1ccccc1)Cc1ccccc1` [Compound 3, 3,3-Dibenzyl-8-cyclopropylmethyloxyimidazo[1,2-a]-pyridin-2(3H)-one]: the melting point fell in the range of 236 to 237 °C. Also, the inhibition in vivo at 1 mg/kg in data set [1] stood at 47.4%.

Compound `O=C1N=C2C(OC3CCCC3)=CC=CN2C1(Cc1ccccc1)Cc1ccccc1` [Compound 11, 3,3-Dibenzyl-8-cyclopentyloxyimidazo[1,2-a]pyridin-2(3H)-one] yielded a melting point of 268 to 269 °C. Besides, the inhibition in vivo at 1 mg/kg in data set [1] worked out at 48%.

`O=C1N=C2C=CC=CN2C1(Cc1ccccc1)Cc1ccc(F)cc1` (stereo not drawn) [Compound 39, 3-Benzyl-3-(4-fluorobenzyl)imidazo[1,2-a]pyridin-2(3H)-one] returned a melting point of over 300 °C. Besides, the inhibition in vivo at 0.01 mg/kg in data set [1] was determined as 43.7%.

In the case of `CCCCC1(CCCC)C(=O)N=C2C=CC=CN21` [Compound 34, 3,3-Dibutylimidazo[1,2-a]pyridin-2(3H)-one], the melting point fell in the range of 100.5 to 102 °C. Moreover, the inhibition in vivo at 0.01 mg/kg in data set [1] worked out at 59.6%.

In the case of `C=CCC1(CC=C)C(=O)N=C2C(OCc3ccccc3)=CC=CN21` [Compound 25, 3,3-Diallyl-8-benzyloxyimidazo[1,2-a]pyridin-2(3H)-one], the melting point lay in the range of 160 to 162 °C.

`CC(=O)NC1=CC=CN2C1=NC(=O)C2(Cc1ccccc1)Cc1ccccc1` [Compound 31, 8-Acetylamino-3,3-dibenzylimidazo[1,2-a]pyridin-2(3H)-one] yielded a melting point of 235 to 237 °C. Besides, the inhibition in vivo at 1 mg/kg in data set [1] was determined as 60.4%.

`CN(C)c1ccc(CC2(Cc3ccc(N(C)C)cc3)C(=O)N=C3C=CC=CN32)cc1` [Compound 17, 3,3-bis(4-Dimethylaminobenzyl)imidazo[1,2-a]pyridin-2(3H)-one] returned a melting point of over 300 °C. Also, the inhibition in vivo at 0.01 mg/kg in data set [1] was found to be 33.1%.

`O=C1N=C2C=CC(Cl)=CN2C1(Cc1ccccc1)Cc1ccccc1` [Compound 4, 3,3-Dibenzyl-6-chloroimidazo[1,2-a]pyridin-2(3H)-one]: the melting point lay in the range of 246 to 248 °C. In data set [1], the inhibition in vivo at 1 mg/kg was found to be 58.5%.

`O=C1N=C2C=CC=CN2C1(Cc1ccc(O)cc1)Cc1ccc(O)cc1` [Compound 22, 3,3-bis(4-Hydroxybenzyl)imidazo[1,2-a]pyridin-2(3H)-one] came in with a melting point of 276.5 to 277.5 °C. In data set [1], the inhibition in vivo at 0.01 mg/kg was 37.4%.

For `COc1cc2c(cc1OC)C(=O)C(CC1CCN(Cc3ccccc3)CC1)C2` (racemic) [Compound C, (R,S)-1-benzyl-4-(5,6-dimethoxy-1-indanon-2-yl)-methylpiperidine, reference compound], in data set [1], the inhibition in vivo at 0.01 mg/kg stood at 12.5% and the inhibition in vivo at 1 mg/kg is 24.7%.

`Nc1c2c(nc3ccccc13)CCCC2` [Compound B, 9-amino-1,2,3,4-tetrahydro-acridine, reference compound]: in data set [1], the inhibition in vivo at 0.01 mg/kg is 24.1% and the inhibition in vivo at 1 mg/kg was found to be 54.9%.

`C=CCC1(CC=C)C(=O)N=C2C=CC=CN21` [Compound 23, 3,3-Diallylimidazo[1,2-a]pyridin-2(3H)-one] registered a melting point of 64 to 66 °C. The inhibition in vivo at 0.01 mg/kg in data set [1] was 53.6%.

Turning to `O=C1N=C2C(Cl)=CC(Cl)=CN2C1(Cc1ccccc1)Cc1ccccc1` [Compound 12, 3,3-Dibenzyl-6,8-dichloroimidazo[1,2-a]pyridin-2(3H)-one], the melting point fell in the range of 260 to 261 °C.

In the case of `CC(C)OC1=CC=CN2C1=NC(=O)C2(Cc1ccccc1)Cc1ccccc1` [Compound 1, 3,3-Dibenzyl-8-isopropoxyimidazo[1,2-a]-pyridin-2(3H)-one], the melting point was in the range of 247 to 248 °C. For the same compound, the inhibition in vivo at 1 mg/kg in data set [1] was 50.4%.

Regarding `O=C1N=C2C=CC=CN2C12Cc1ccccc1C2` [Compound 24, Spiro[imidazo[1,2-a]pyridin-2(3H)-one-3,2′-indan]], in data set [1], the “Inhibitory rate (%)” value is 56.8** %.

The compound `O=C1N=C2C(OCc3ccccc3)=CC=CN2C1(Cc1ccccc1)Cc1ccccc1` [Compound 6, 3,3-Dibenzyl-8-benzyloxyimidazo[1,2-a]pyridin-2(3H)-one] showed a melting point of 240 to 241 °C. Also, in data set [1], the inhibition in vivo at 0.01 mg/kg was found to be 58.8%.

As to `O=C1N=C2C(Cl)=CC(C(F)(F)F)=CN2C1(Cc1ccccc1)Cc1ccccc1` [Compound 13, 3,3-Dibenzyl-8-chloro-6-trifluoromethylimidazo[1,2-a]pyridin-2(3H)-one], the melting point was in the range of 234 to 236 °C. For the same compound, the inhibition in vivo at 0.01 mg/kg in data set [1] turned out to be 57%.

In the case of `O=C1N=C2C=CC=CN2C12Cc1cccc3cccc(c13)C2` [Compound 27, Spiro[imidazo[1,2-a]pyridin-2(3H)-one-3,2′-[2,3]dihydrophenalene]], the “Inhibitory rate (%)” value in data set [1] is given as 60.7* %.

`CC1=CC=CN2C1=NC(=O)C2(Cc1ccncc1)Cc1ccncc1` [Compound 15, 8-Methyl-3,3-bis(4-pyridylmethyl)imidazo[1,2-a]-pyridin-2(3H)-one] displayed a melting point of 228 to 230 °C.

`O=C1N(c2ccccc2)c2ccccc2C1(Cc1ccncc1)Cc1ccncc1` [Compound A, 3,3-bis(4-pyridylmethyl)-1-phenylindolin-2-one, reference compound]: in data set [1], the inhibition in vivo at 0.01 mg/kg amounted to 8.8% and the inhibition in vivo at 1 mg/kg turned out to be 20.9%.

The compound `CC1(C)C(=O)N=C2C=CC=CN21` [Compound 33, 3,3-Dimethylimidazo[1,2-a]pyridin-2(3H)-one] yielded a melting point of 200 to 202 °C.
